The source of these data is patent publication US9067871B2, “Aminotetraline derivatives, pharmaceutical compositions containing them, and their use in therapy” (ABBVIE DEUTSCHLAND GMBH & CO KG, priority 2009, dated 2015).

The experiment has as its target human GlyT1c transporter (Homo sapiens (Human), UniProt P48067). The experiment is described as follows: Radioligand binding assay using recombinant CHO cell membranes expressing human GlyT1. To be noted: human GlyT1c-expressing CHO cell membranes; read-out: radioligand binding Kiapp. An excerpt:
2. Radioligand binding assays using recombinant CHO cell membranes expressing human GlyT1: […]

Where a name gives a salt, the structure may show the parent alone. A value given as a limit tells only on which side of the number the result lay.

Sequence of human GlyT1c transporter (P48067 whole entry): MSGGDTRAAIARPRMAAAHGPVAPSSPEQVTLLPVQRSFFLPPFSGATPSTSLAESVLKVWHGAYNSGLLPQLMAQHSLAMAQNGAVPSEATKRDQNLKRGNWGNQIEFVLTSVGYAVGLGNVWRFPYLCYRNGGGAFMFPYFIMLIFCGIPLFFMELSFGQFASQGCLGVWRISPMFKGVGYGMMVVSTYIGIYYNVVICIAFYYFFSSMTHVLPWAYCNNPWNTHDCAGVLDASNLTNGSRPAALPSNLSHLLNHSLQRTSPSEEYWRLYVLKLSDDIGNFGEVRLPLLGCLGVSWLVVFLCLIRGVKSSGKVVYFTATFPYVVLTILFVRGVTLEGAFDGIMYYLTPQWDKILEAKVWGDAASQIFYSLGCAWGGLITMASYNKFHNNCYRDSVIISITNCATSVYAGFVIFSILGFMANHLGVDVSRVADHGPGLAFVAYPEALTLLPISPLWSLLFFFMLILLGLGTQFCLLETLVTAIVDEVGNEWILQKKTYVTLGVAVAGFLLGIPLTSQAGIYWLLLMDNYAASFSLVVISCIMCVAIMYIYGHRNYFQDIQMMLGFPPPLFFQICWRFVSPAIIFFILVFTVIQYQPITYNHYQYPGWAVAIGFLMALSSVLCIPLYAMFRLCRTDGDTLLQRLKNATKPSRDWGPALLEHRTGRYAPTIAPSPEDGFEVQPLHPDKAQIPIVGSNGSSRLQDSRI

With `CCOC(=O)NC1CCc2ccc(OCCNS(=O)(=O)c3cnn(C)c3)cc2C1Cc1ccccc1Cl` (stereo not drawn) [Example 299, {1-(2-Chloro-benzyl)-7-[2-(1-methyl-1H-pyrazole-4-sulfonylamino)-ethoxy]-1,2,3,4-tetrahydro-naphthalen-2-yl}-carbamic acid ethyl ester], the Ki was above 10000 nM. The result for `CN(CCOc1ccc2c(c1)C(Cc1ccc(Cl)c(Cl)c1)C(N1CCCC1)CC2)S(=O)(=O)CC1CC1` (stereo not drawn) [Example 126, C-Cyclopropyl-N-{2-[8-(3,4-dichloro-benzyl)-7-pyrrolidin-1-yl-5,6,7,8-tetrahydronaphthalen-2-yloxy]-ethyl}-N-methyl-methanesulfonamide hydrochloride] reads at most 10 nM; that for `Cn1cc(S(=O)(=O)NCc2ccc3c(c2)C(Cc2ccccc2)C(N)CC3)c(C(F)(F)F)n1` (stereo not drawn) [Example 182, N-{[7-Amino-8-benzyl-5,6,7,8-tetrahydronaphthalen-2-yl]methyl}-1-methyl-3-(trifluoromethyl)-1H-pyrazole-4-sulfonamide hydrochloride], at most 100 nM. The result for `Cn1cc(S(=O)(=O)NCc2ccc3c(c2)C(Cc2ccccc2)C(N)CC3)cn1` (stereo not drawn) [Example 172, N-[(7-Amino-8-benzyl-5,6,7,8-tetrahydronaphthalen-2-yl)methyl]-1-methyl-1H-pyrazole-4-sulfonamide hydrochloride] reads at most 10 nM. For `NC1CCc2ccc(OCCNS(=O)(=O)CC3CC3)cc2C1Cc1cccc(Cl)c1` (stereo not drawn) [Example 288, N-{2-[7-Amino-8-(3-chloro-benzyl)-5,6,7,8-tetrahydro-naphthalen-2-yloxy]-ethyl}-C-cyclopropyl-methanesulfonamide hydrochloride], the Ki is at most 10 nM.

Consider `CNC1CCc2ccc(OCCNS(=O)(=O)c3ccn(C)c3)cc2C1Cc1cc(F)cc(F)c1` (single isomer, unassigned; enantiomer 1) [Example 241, Enantiomer 1 of N-(2-{[8-(3,5-difluorobenzyl)-7-(methylamino)-5,6,7,8-tetrahydronaphthalen-2-yl]oxy}ethyl)-1-methyl-1H-pyrrole-3-sulfonamide hydrochloride], for which the Ki is at most 100 nM. `O=S(=O)(CC1CC1)NCc1ccc2c(c1)C(Cc1ccccc1)C(N1CCOCC1)CC2` (stereo not drawn) [Example 259, N-{[8-Benzyl-7-(morpholin-4-yl)-5,6,7,8-tetrahydronaphthalen-2-yl]methyl}-1-cyclopropylmethanesulfonamide]: the Ki was at most 1000 nM. The result for `Cn1cnc(S(=O)(=O)NCc2ccc3c(c2)C(Cc2ccccc2)C(N)CC3)c1` (stereo not drawn) [Example 173, N-[(7-Amino-8-benzyl-5,6,7,8-tetrahydronaphthalen-2-yl)methyl]-1-methyl-1H-imidazole-4-sulfonamide hydrochloride] reads at most 10 nM; that for `CCCCS(=O)(=O)NCCOc1ccc2c(c1)C(Cc1ccc(Cl)c(Cl)c1)C(N)CC2` (stereo not drawn) [Example 90, Butane-1-sulfonic acid {2-[7-amino-8-(3,4-dichloro-benzyl)-5,6,7,8-tetrahydro-naphthalen-2-yloxy]-ethyl}-amide hydrochloride], at most 1000 nM; that for `CCCS(=O)(=O)NCCOc1ccc2c(c1)C(Cc1cccc(F)c1)C(N)CC2` (stereo not drawn) [Example 107, Propane-1-sulfonic acid {2-[7-amino-8-(3-fluoro-benzyl)-5,6,7,8-tetrahydro-naphthalen-2-yloxy]-ethyl}-amide hydrochloride], at most 100 nM.

For the compound `Cn1cc(S(=O)(=O)NCCOc2ccc3c(c2)C(Cc2cccc(Cl)c2)C(N2CCCC2)CC3)cn1` (stereo not drawn) [Example 318, 1-Methyl-1H-pyrazole-4-sulfonic acid {2-[8-(3-chloro-benzyl)-7-pyrrolidin-1-yl-5,6,7,8-tetrahydro-naphthalen-2-yloxy]-ethyl}-amide hydrochloride], the Ki is at most 10 nM. Under `CCCS(=O)(=O)NCCCc1ccc2c(c1)C(Cc1cccc(F)c1)C(NCC)CC2` (stereo not drawn) [Example 219, Propane-1-sulfonic acid {3-[7-ethylamino-8-(3-fluoro-benzyl)-5,6,7,8-tetrahydronaphthalen-2-yl]-propyl}-amide hydrochloride] stands at most 100 nM; under `Cn1cnc(S(=O)(=O)NCCOc2ccc3c(c2)C(Cc2ccccc2Cl)C(N)CC3)c1` (stereo not drawn) [Example 305, 1-Methyl-1H-imidazole-4-sulfonic acid {2-[7-amino-8-(2-chloro-benzyl)-5,6,7,8-tetrahydronaphthalen-2-yloxy]-ethyl}-amide hydrochloride], at most 100 nM; under `Cn1cnc(S(=O)(=O)NCCOc2ccc3c(c2)C(Cc2cccc(Cl)c2)C(N2CCCC2)CC3)c1` (stereo not drawn) [Example 319, 1-Methyl-1H-imidazole-4-sulfonic acid {2-[8-(3-chloro-benzyl)-7-pyrrolidin-1-yl-5,6,7,8-tetrahydro-naphthalen-2-yloxy]-ethyl}-amide hydrochloride], at most 100 nM. The result for `Cn1ccc(S(=O)(=O)NCCOc2ccc3c(c2)C(Cc2cccc(F)c2)C(N2CCC2)CC3)c1` (stereo not drawn) [Example 269, 1-Methyl-1H-pyrrole-3-sulfonic acid {2-[7-azetidin-1-yl-8-(3-fluoro-benzyl)-5,6,7,8-tetrahydro-naphthalen-2-yloxy]-ethyl}-amide] reads at most 10 nM. `Cc1cc(CS(=O)(=O)NCCOc2ccc3c(c2)C(Cc2ccc(Cl)c(Cl)c2)C(N)CC3)no1` (stereo not drawn) [Example 87, N-{2-[7-Amino-8-(3,4-dichloro-benzyl)-5,6,7,8-tetrahydro-naphthalen-2-yloxy]-ethyl}-C-(5-methyl-isoxazol-3-yl)-methanesulfonamide hydrochloride]: the Ki is at most 10000 nM. Under `NC1CCc2ccc(CCNS(=O)(=O)CC3CC3)cc2C1Cc1cccc(Cl)c1` (stereo not drawn) [Example 310, N-{2-[7-Amino-8-(3-chloro-benzyl)-5,6,7,8-tetrahydro-naphthalen-2-yl]-ethyl}-C-cyclopropyl-methanesulfonamide hydrochloride] stands at most 1000 nM. For `O=S(=O)(CC1CC1)NCCCc1ccc2c(c1)C(Cc1ccccc1)C(N1CCCC1)CC2` (stereo not drawn) [Example 266, N-{3-[8-Benzyl-7-(pyrrolidin-1-yl)-5,6,7,8-tetrahydronaphthalen-2-yl]propyl}-1-cyclopropylmethanesulfonamide hydrochloride], the Ki was at most 1000 nM. For the compound `Cn1ccc(S(=O)(=O)NCCOc2ccc3c(c2)C(Cc2cc(F)cc(F)c2)C(NC=O)CC3)c1` (stereo not drawn) [Example 271, N-(2-{[8-(3,5-Difluorobenzyl)-7-(formylamino)-5,6,7,8-tetrahydronaphthalen-2-yl]oxy}ethyl)-1-methyl-1H-pyrrole-3-sulfonamide], the Ki is at most 100 nM. As to `CC(C)S(=O)(=O)NCCOc1ccc2c(c1)C(Cc1ccc(Cl)c(Cl)c1)C(N)CC2` (stereo not drawn) [Example 91, Propane-2-sulfonic acid {2-[7-amino-8-(3,4-dichloro-benzyl)-5,6,7,8-tetrahydronaphthalen-2-yloxy]-ethyl}-amide hydrochloride], the Ki is at most 100 nM. With `CCC(=O)NCCOc1ccc2c(c1)C(Cc1ccccc1)C(N)CC2` (stereo not drawn) [Example 103, N-[2-(7-Amino-8-benzyl-5,6,7,8-tetrahydro-naphthalen-2-yloxy)-ethyl]-propionamide hydrochloride], the Ki was at most 10000 nM. Under `CCCS(=O)(=O)NCCc1ccc2c(c1)C(Cc1cccc(Cl)c1)C(NC)CC2` (stereo not drawn) [Example 309, Propane-1-sulfonic acid {2-[8-(3-chloro-benzyl)-7-methylamino-5,6,7,8-tetrahydronaphthalen-2-yl]-ethyl}-amide] stands at most 100 nM. For the compound `NC1CCc2ccc(OCCNC(=O)CC3CC3)cc2C1Cc1ccc(Cl)c(Cl)c1` (stereo not drawn) [Example 122, N-(2-{[7-Amino-8-(3,4-dichlorobenzyl)-5,6,7,8-tetrahydronaphthalen-2-yl]oxy}ethyl)-2-cyclopropylacetamide hydrochloride], the Ki is at most 10000 nM. The result for `CNC1CCc2ccc(OCCNS(=O)(=O)CC3CC3)cc2C1Cc1ccc(F)cc1` (stereo not drawn) [Example 161, 1-Cyclopropyl-N-(2-{[8-(4-fluorobenzyl)-7-(methylamino)-5,6,7,8-tetrahydronaphthalen-2-yl]oxy}ethyl)methanesulfonamide] reads at most 10 nM. Under `NC1CCc2ccc(CNS(=O)(=O)c3cccnc3)cc2C1Cc1ccccc1` (stereo not drawn) [Example 181, N-{[7-Amino-8-benzyl-5,6,7,8-tetrahydronaphthalen-2-yl]methyl}pyridine-3-sulfonamide dihydrochloride] stands at most 100 nM; under `Cn1cnc(S(=O)(=O)NCCOc2ccc3c(c2)C(Cc2ccccc2)C(N)CC3)c1` (single isomer, unassigned; enantiomer 1) [Example 238, Enantiomer 1 of N-(2-{[7-amino-8-benzyl-5,6,7,8-tetrahydronaphthalen-2-yl]oxy}ethyl)-1-methyl-1H-imidazole-4-sulfonamide hydrochloride], at most 10 nM. The result for `CCCS(=O)(=O)N1CC(COc2ccc3c(c2)C(Cc2cccc(Cl)c2)C(NC(=O)OCC)CC3)C1` (stereo not drawn) [Example 285, {1-(3-Chloro-benzyl)-7-[1-(propane-1-sulfonyl)-azetidin-3-ylmethoxy]-1,2,3,4-tetrahydronaphthalen-2-yl}-carbamic acid ethyl ester] reads at most 10000 nM. Regarding `NC1CCc2ccc(OCCNS(=O)(=O)CC3CC3)cc2C1Cc1ccc(Cl)c(Cl)c1` (stereo not drawn) [Example 95, N-{2-[7-Amino-8-(3,4-dichloro-benzyl)-5,6,7,8-tetrahydro-naphthalen-2-yloxy]-ethyl}-C-cyclopropyl-methanesulfonamide hydrochloride], the Ki was at most 10 nM. Under `CCCS(=O)(=O)NCCCc1ccc2c(c1)C(Cc1ccc(F)cc1)C(NC(C)=O)CC2` (stereo not drawn) [Example 215, N-[1-(4-Fluorobenzyl)-7-{3-[(propylsulfonyl)amino]propyl}-1,2,3,4-tetrahydronaphthalen-2-yl]acetamide] stands at most 10000 nM; under `CCCS(=O)(=O)NCCCc1ccc2c(c1)C(Cc1ccc(Cl)cc1)C(N)CC2` (stereo not drawn) [Example 201, N-{3-[7-Amino-8-(4-chlorobenzyl)-5,6,7,8-tetrahydronaphthalen-2-yl]propyl}propane-1-sulfonamide hydrochloride], at most 100 nM.
